Results on 10 compounds are retold here after patent EP0001516A1, “Beta-Lactam compounds, processes for their preparation, pharmaceutical compositions containing them and intermediates of use in their preparation” (GLAXO GROUP LIMITED, priority 1977, dated 1979).

Data set [1] concerns the target partially purified β-lactamase K1. Description: β-Lactamase inhibition (hydrolysis of ampicillin). As to conditions: β-lactamase KI; ampicillin sodium 500 µg/ml, 37°C, pH7. The class given is biochemical. As for the experimental part:
(§1) The compounds have been tested for their inhibitory activity against partially purified β-lactamases from Escherichia coli (either TEM or RPI), Klebsiella aerogenes (K1) and Staphylococcus aureus (PCI). The substrate used was ampicillin sodium.
(§2) Ampicillin sodium at a concentration of 500 µg/ml was reacted with the enzyme at 37°C and pH7. The enzyme concentration was such as to destroy all the ampicillin within 10 minutes. The reaction was followed spectrophotometrically by observing the loss of absorption at 238 nm. Concentrations of the compound were added to inhibit the reaction, and the I5O value represents µg/ml of compound halving the initial velocity of hydrolysis of ampicillin.

The target of data set [2] is T1, partially purified β-lactamase PCI (Staphylococcus aureus, UniProt P00807).
T1 construct: partially purified β-lactamases from Escherichia coli (either TEM or RPI), Klebsiella aerogenes (K1) and Staphylococcus aureus (PCI); endogenous in cells; host or cells: Staphylococcus aureus (PCI), enzyme partially purified from the producing bacterium
T1 sequence (P00807 25-281): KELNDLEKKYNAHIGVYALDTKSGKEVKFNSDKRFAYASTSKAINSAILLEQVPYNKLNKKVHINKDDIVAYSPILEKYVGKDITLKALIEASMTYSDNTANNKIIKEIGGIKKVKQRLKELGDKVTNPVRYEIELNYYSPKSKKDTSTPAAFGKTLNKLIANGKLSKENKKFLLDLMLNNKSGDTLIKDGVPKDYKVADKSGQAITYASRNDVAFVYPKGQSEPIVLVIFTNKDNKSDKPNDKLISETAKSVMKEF
Kind of data set: β-Lactamase inhibition (hydrolysis of ampicillin). Type of data set: biochemical. The conditions noted are these: ampicillin sodium 500 µg/ml, 37°C, pH7, read-out: μg/ml of compound giving 50% inhibition of hydrolysis of ampicillin (converted). As for the experimental part: as §1, §2

For data set [3], the target named is T2, partially purified β-lactamase TEM (Escherichia coli, UniProt P62593).
T2 construct: partially purified β-lactamases from Escherichia coli (either TEM or RPI); endogenous in cells; host or cells: Escherichia coli carrying the TEM plasmid, enzyme partially purified from the bacterium
T2 sequence (P62593 24-286 limits assumed): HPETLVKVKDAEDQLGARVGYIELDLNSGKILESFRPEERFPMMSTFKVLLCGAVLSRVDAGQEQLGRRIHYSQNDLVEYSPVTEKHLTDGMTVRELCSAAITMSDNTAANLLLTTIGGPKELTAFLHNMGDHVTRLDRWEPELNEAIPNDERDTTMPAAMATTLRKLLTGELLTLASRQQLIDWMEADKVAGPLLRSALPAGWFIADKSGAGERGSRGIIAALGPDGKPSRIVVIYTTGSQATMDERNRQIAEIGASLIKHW
Description: β-Lactamase inhibition (hydrolysis of ampicillin). The conditions noted are these: ampicillin sodium 500 µg/ml, 37°C, pH7, read-out: μg/ml of compound giving 50% inhibition of hydrolysis of ampicillin (converted). The class given is biochemical. How it is done: as §1, §2

Another data set deals with E. cloacae 1051E. Kind of data set: Minimum Inhibitory Concentration (MIC), agar dilution. The conditions noted are these: 18 hours at 37°C. The class given is cell-based. An excerpt: (§3) Serial two-fold dilutions of freshly prepared test solution were made into Oxoid No. 1 Nutrient agar with or without added enrichment and poured into petri dishes. Plates were innoculated with a multipoint innoculator with innoculum containing approximately 10^5 colony forming units of the organisms shown in Table 1, all of which are clinical isolates.

The next data set deals with E. cloacae 1321E. The description is as above. Type of data set: cell-based. As to conditions: 18 hours at 37°C.
Source text: as §3

In another data set the test system is E. coli 851E. Described as above. Type of data set: cell-based. As to conditions: 18 hours at 37°C.
Source text: as §3

A further data set deals with H. influenzae 1184E. The data set is described as above. The conditions noted are these: 18 hours at 37°C. The class given is cell-based.
Source text: as §3

The test system of the next data set is K. aerogenes 1522E. Described as above. Type of data set: cell-based. As to conditions: 18 hours at 37°C.
Source text: as §3

The subject of another data set is Micrococcus SP 1810E. Described as above. The class given is cell-based. The conditions noted are these: 18 hours at 37°C.
Source text: as §3

A further data set has as its system S. marcescens 1324E. The data set is described as above. Type of data set: cell-based. The conditions noted are these: 18 hours at 37°C.
Source text: as §3

Data set [4] deals with Staph. aureus 853E. The data set is described as above. As to conditions: 18 hours at 37°C. Type of data set: cell-based.
Source text: as §3

The subject of a further data set is E. coli (TEM^+) 1193E. Kind of data set: Synergy testing with amoxycillin (MIC, agar dilution). Type of data set: cell-based.
Source text: as §3
(§4) Method as for 1, incorporating amoxycillin in serial two-fold dilutions along with a sub-inhibitory, fixed concentration of the test clavulanic acid derivative, as shown in the Table. All of the organisms are clinical isolates.
For orientation: Agar dilution tests growth on a series of plates holding different concentrations.

Another data set concerns K. aerogenes 1963E. The description is as above. Type of data set: cell-based.
Source text: as §3, §4

The test system of another data set is Pr. rettgeri 1356E. The description is as above. The class given is cell-based.
Source text: as §3, §4

Another data set is described as follows: Toxicity in mice. The conditions noted are these: mouse, in vivo, ip; administered intraperitoneally to mice.
Data set [5] relates to Staph. aureus 853E. Description: Synergy testing with amoxycillin (MIC, agar dilution). Type of data set: cell-based. The conditions noted are these: amoxycillin alone.
Source text: as §3, §4

[6] abbreviates: in the presence of 1µg/ml of compound.
The mark [7] stands for this setting: in the presence of 4µg/ml of compound.

In general, LD50 refers to the dose expected to kill half of the subjects tested. Low readings indicate a more toxic substance, high ones a less toxic substance.

Consider `CCOC(=O)c1nnn(C/C=C2\O[C@@H]3CC(=O)N3[C@H]2C(=O)O)c1C(=O)OCC` [Example 2, Sodium (3R,5R,Z)-2-[2-(4,5-diethoxcarbonl-1,2,3-triazol-1-yl)-ethylidene]-clavam-3-carboxylate], for which the “μg/ml of compound giving 50% inhibition of hydrolysis of ampicillin” value in data set [1] turned out to be 0.8 µg/mL. For the same compound, the IC50 was 5330 nM in data set [2] and 761 nM in [3].
Take `CCOC(=O)c1cn(C/C=C2\O[C@@H]3CC(=O)N3[C@H]2C(=O)O)nn1` [Example 4]: the “MIC (agar dilution) of compound” value against E. cloacae 1051E is 16 µg/mL; against E. cloacae 1321E it was 16 µg/mL; with E. coli 851E it was 4 µg/mL; against H. influenzae 1184E, 62 µg/mL; against K. aerogenes 1522E it was 8 µg/mL; against Micrococcus SP 1810E, under 0.1 µg/mL. Also, the “MIC (agar dilution) of compound” value in the data set with S. marcescens 1324E was 125 µg/mL; against Staph. aureus 853E [4] (Staph. aureus 835E), under 0.1 µg/mL. In addition, the “μg/ml of compound giving 50% inhibition of hydrolysis of ampicillin” value in data set [1] turned out to be 0.35 µg/mL. Moreover, the IC50 in [2] was 419 nM. For the same compound, the MIC of amoxycillin in the data set on E. coli (TEM^+) 1193E (setting [6]) was over 250 µg/mL; in the data set with K. aerogenes 1963E (setting [6]) it was 2 µg/mL; in the data set with Pr. rettgeri 1356E (setting [6]), 125 µg/mL; with Pr. rettgeri 1356E (setting [7]), 4 µg/mL. This compound also came in with an LD50 in “Toxicity in mice” of over 500 mg/kg.
For the compound `CC(=O)c1cn(C/C=C2\O[C@@H]3CC(=O)N3[C@H]2C(=O)O)nn1` [Example 6, Sodium (3R,5R,Z)-2-[2-(4-acetyl-1,2,3-triazol-l-yl)-ethlidene]-clavam-3-carboxylate], the “MIC (agar dilution) of compound” value was 8 µg/mL against E. cloacae 1051E; 8 µg/mL against E. cloacae 1321E; 4 µg/mL against E. coli 851E; 62 µg/mL against H. influenzae 1184E; 8 µg/mL against K. aerogenes 1522E; under 0.1 µg/mL with Micrococcus SP 1810E. Moreover, the figures for the “MIC (agar dilution) of compound” value with S. marcescens 1324E and against Staph. aureus 853E [4] (Staph. aureus 835E) were 62 µg/mL and under 0.1 µg/mL, respectively. In [1], the “μg/ml of compound giving 50% inhibition of hydrolysis of ampicillin” value turned out to be 0.155 µg/mL. Further, in data set [2], the IC50 is 616 nM. In “Toxicity in mice”, this compound had an LD50 of over 500 mg/kg.
For the compound `O=C(O)c1cn(C/C=C2\O[C@@H]3CC(=O)N3[C@H]2C(=O)O)nn1` [Example 8, Disodium (3R,5R.Z)-2-[2-(4-carboxy-1.2.3-triazol-l-yl)-ethylidene]-clavam-3-carboxylate], the “MIC (agar dilution) of compound” value in the data set with E. cloacae 1051E amounted to 16 µg/mL; with E. cloacae 1321E, 8 µg/mL; against E. coli 851E it was 8 µg/mL; against H. influenzae 1184E, 31 µg/mL; with K. aerogenes 1522E, 16 µg/mL; in the data set on Micrococcus SP 1810E, 8 µg/mL. Moreover, the “MIC (agar dilution) of compound” value turned out to be 31 µg/mL against S. marcescens 1324E and 8 µg/mL in the data set with Staph. aureus 853E [4] (Staph. aureus 835E). Further, the “μg/ml of compound giving 50% inhibition of hydrolysis of ampicillin” value in data set [1] was found to be 0.22 µg/mL. Moreover, the results for the IC50 in [2] and in data set [3] were 9860 nM and 374 nM, respectively.
For the compound `CC(=O)c1cnnn1C/C=C1\O[C@@H]2CC(=O)N2[C@H]1C(=O)O` [Example 10, Sodium (3R,5R.Z)-2-[2-(5-acetvl-1.2,3-triazol-l-yl)-ethylidene]-clavam-3-carboxylate], the “μg/ml of compound giving 50% inhibition of hydrolysis of ampicillin” value in data set [1] worked out at 0.62 µg/mL. The IC50 in data set [2] is 2400 nM; in [3], 1980 nM.
For `NC(=O)c1cn(C/C=C2\O[C@@H]3CC(=O)N3[C@H]2C(=O)O)nn1` [Example 12], the “MIC (agar dilution) of compound” value in the data set on E. cloacae 1051E worked out at 4 µg/mL; with E. cloacae 1321E, 4 µg/mL; in the data set on E. coli 851E, 4 µg/mL; against H. influenzae 1184E, 31 µg/mL; in the data set on K. aerogenes 1522E, 8 µg/mL; in the data set with Micrococcus SP 1810E, 0.2 µg/mL. The entries for the “MIC (agar dilution) of compound” value in the data set on S. marcescens 1324E and in the data set on Staph. aureus 853E [4] (Staph. aureus 853E) were 8 µg/mL and 0.5 µg/mL, respectively. In addition, the “μg/ml of compound giving 50% inhibition of hydrolysis of ampicillin” value in [1] came out at 0.34 µg/mL. For the same compound, the IC50 is 1230 nM in data set [2] and 426 nM in data set [3]. Besides, the MIC of amoxycillin with E. coli (TEM^+) 1193E (setting [6]) is 62 µg/mL; with E. coli (TEM^+) 1193E (setting [7]) it was 1 µg/mL; with K. aerogenes 1963E (setting [6]) it was 1 µg/mL; in the data set on K. aerogenes 1963E (setting [7]), under 0.1 µg/mL; in the data set on Pr. rettgeri 1356E (setting [6]), 8 µg/mL; in the data set with Pr. rettgeri 1356E (setting [7]) it was 1 µg/mL.
`N#Cc1cn(C/C=C2\O[C@@H]3CC(=O)N3[C@H]2C(=O)O)nn1` [Example 17, Sodium (3R,5R,Z)-2-[2-(4-cyano-1,2,3-triazol-1-yl)-ethylidene]clavam-3-carboxylate]: the “MIC (agar dilution) of compound” value against E. cloacae 1051E is 4 µg/mL; against E. cloacae 1321E it was 4 µg/mL; in the data set on E. coli 851E, 2 µg/mL; in the data set on H. influenzae 1184E, 16 µg/mL; against K. aerogenes 1522E, 8 µg/mL; in the data set on S. marcescens 1324E, 31 µg/mL. Also, in the data set on Staph. aureus 853E [4] (Staph. aureus 835E), the “MIC (agar dilution) of compound” value was under 0.1 µg/mL. Moreover, the “μg/ml of compound giving 50% inhibition of hydrolysis of ampicillin” value in [1] was 0.39 µg/mL. Besides, the figures for the IC50 in data set [2] and in data set [3] were 2540 nM and 363 nM, respectively. Moreover, the MIC of amoxycillin in the data set with E. coli (TEM^+) 1193E (setting [6]) was 31 µg/mL; in the data set on K. aerogenes 1963E (setting [6]), 2 µg/mL; in the data set with K. aerogenes 1963E (setting [7]), 0.5 µg/mL; with Pr. rettgeri 1356E (setting [6]), 31 µg/mL; in the data set with Pr. rettgeri 1356E (setting [7]), 2 µg/mL. Besides, the LD50 in the data set “Toxicity in mice” was over 500 mg/kg.
`COC(=O)c1cn(C/C=C2\O[C@@H]3CC(=O)N3[C@H]2C(=O)O)nn1` [Example 19, Sodium (3R,5R,Z)-2-[2-(4-methoxycarbonyl-1,2,3-triazol-1-y)ethylidene]clavam-3-carboxylate]: the “MIC (agar dilution) of compound” value in the data set with E. cloacae 1051E was 16 µg/mL; against E. cloacae 1321E, 16 µg/mL; against E. coli 851E, 4 µg/mL; with H. influenzae 1184E it was 62 µg/mL; against K. aerogenes 1522E, 16 µg/mL; against S. marcescens 1324E, 62 µg/mL. Besides, in the data set with Staph. aureus 853E [4] (Staph. aureus 853E), the “MIC (agar dilution) of compound” value amounted to 0.5 µg/mL. The MIC of amoxycillin worked out at 16 µg/mL in the data set on Pr. rettgeri 1356E (setting [6]) and 1 µg/mL in the data set on Pr. rettgeri 1356E (setting [7]). The LD50 in “Toxicity in mice” is over 500 mg/kg.
`O=C(O)[C@H]1/C(=C/Cn2ccnn2)O[C@@H]2CC(=O)N21` [Example 22]: the “MIC (agar dilution) of compound” value against E. cloacae 1051E is 8 µg/mL; against E. cloacae 1321E it was 8 µg/mL; against E. coli 851E it was 4 µg/mL; with H. influenzae 1184E, 16 µg/mL; in the data set with K. aerogenes 1522E, 8 µg/mL; against S. marcescens 1324E it was 8 µg/mL. In addition, in the data set on Staph. aureus 853E [4] (Staph. aureus 853E), the “MIC (agar dilution) of compound” value was determined as 2 µg/mL.
Take `CC1(C)S[C@@H]2[C@H](NC(=O)[C@H](N)c3ccc(O)cc3)C(=O)N2[C@H]1C(=O)O` [amoxycillin, reference compound]: the MIC of amoxycillin with E. coli (TEM^+) 1193E (amoxycillin alone) was over 250 µg/mL; with K. aerogenes 1963E (amoxycillin alone), 62 µg/mL; in the data set on Pr. rettgeri 1356E (amoxycillin alone), over 250 µg/mL; with Staph. aureus 853E [5], 2 µg/mL.
